Reference: ChEMBL document CHEMBL2346657, “Synthesis of novel 2-amino-4-(5'-substituted 2'-phenyl-1H-indol-3'-yl)-6-aryl-4H-pyran-3-carbonitrile derivatives as antimicrobial and antioxidant agents” (2013)
Activity calls are given as the source filed them. The rule behind the calls is not given here.

Legend:
Type in all cases: functional
[1] = system: Aspergillus flavus; test: Antimicrobial activity against Aspergillus flavus MTCC 1973 at 1000 ug/ml after 72 hrs by cup plate method; details: MTCC 1973, 72 h, read-out: IZ
[2] = system: Aspergillus terreus; test: Antimicrobial activity against Aspergillus terreus MTCC 1782 at 750 ug/ml after 72 hrs by cup plate method; details: MTCC 1782, 72 h, read-out: IZ
[3] = system: Pseudomonas aeruginosa; test: Antimicrobial activity against Pseudomonas aeruginosa MTCC 1688 at 1000 ug/ml after 24 hrs by cup plate method; details: MTCC 1688, 24 h, read-out: IZ
[4] = system: Staphylococcus aureus; test: Antimicrobial activity against Staphylococcus aureus ATCC 29513 at 750 ug/ml after 24 hrs by cup plate method; details: ATCC 29513, 24 h, read-out: IZ
[5] = system: Aspergillus flavus; test: Antimicrobial activity against Aspergillus flavus MTCC 1973 at 750 ug/ml after 72 hrs by cup plate method; details: MTCC 1973, 72 h, read-out: IZ
[6] = system: Aspergillus oryzae; test: Antimicrobial activity against Aspergillus oryzae MTCC 3567 at 500 ug/ml after 72 hrs by cup plate method; details: MTCC 3567, 72 h, read-out: IZ
[7] = system: Aspergillus oryzae; test: Antimicrobial activity against Aspergillus oryzae MTCC 3567 at 750 ug/ml after 72 hrs by cup plate method; details: MTCC 3567, 72 h, read-out: IZ
[8] = system: Aspergillus niger; test: Antimicrobial activity against Aspergillus niger MTCC 281 at 750 ug/ml after 72 hrs by cup plate method; details: MTCC 281, 72 h, read-out: IZ
[9] = system: Aspergillus flavus; test: Antimicrobial activity against Aspergillus flavus MTCC 1973 at 500 ug/ml after 72 hrs by cup plate method; details: MTCC 1973, 72 h, read-out: IZ
[10] = system: Escherichia coli; test: Antimicrobial activity against Escherichia coli MTCC 723 at 500 ug/ml after 24 hrs by cup plate method; details: MTCC 723, 24 h, read-out: IZ
[11] = system: Escherichia coli; test: Antimicrobial activity against Escherichia coli MTCC 723 at 750 ug/ml after 24 hrs by cup plate method; details: MTCC 723, 24 h, read-out: IZ
[12] = system: Aspergillus oryzae; test: Antimicrobial activity against Aspergillus oryzae MTCC 3567 at 1000 ug/ml after 72 hrs by cup plate method; details: MTCC 3567, 72 h, read-out: IZ
[13] = system: Pseudomonas aeruginosa; test: Antimicrobial activity against Pseudomonas aeruginosa MTCC 1688 at 750 ug/ml after 24 hrs by cup plate method; details: MTCC 1688, 24 h, read-out: IZ
[14] = system: Aspergillus niger; test: Antimicrobial activity against Aspergillus niger MTCC 281 at 1000 ug/ml after 72 hrs by cup plate method; details: MTCC 281, 72 h, read-out: IZ
[15] = system: Staphylococcus aureus; test: Antimicrobial activity against Staphylococcus aureus ATCC 29513 at 1000 ug/ml after 24 hrs by cup plate method; details: ATCC 29513, 24 h, read-out: IZ
[16] = system: Klebsiella pneumoniae; test: Antimicrobial activity against Klebsiella pneumoniae NCTC 13368 at 1000 ug/ml after 24 hrs by cup plate method; details: NCTC 13368, 24 h, read-out: IZ
[17] = Antioxidant activity assessed as metal chelating activity by measuring inhibition of ferrozine-Fe2+ complex formation at 25 to 100 ug/ml
[18] = system: Staphylococcus aureus; test: Antimicrobial activity against Staphylococcus aureus ATCC 29513 at 500 ug/ml after 24 hrs by cup plate method; details: ATCC 29513, 24 h, read-out: IZ
[19] = system: Escherichia coli; test: Antimicrobial activity against Escherichia coli MTCC 723 at 1000 ug/ml after 24 hrs by cup plate method; details: MTCC 723, 24 h, read-out: IZ
[20] = system: Klebsiella pneumoniae; test: Antimicrobial activity against Klebsiella pneumoniae NCTC 13368 at 500 ug/ml after 24 hrs by cup plate method; details: NCTC 13368, 24 h, read-out: IZ
[21] = system: Aspergillus niger; test: Antimicrobial activity against Aspergillus niger MTCC 281 at 500 ug/ml after 72 hrs by cup plate method; details: MTCC 281, 72 h, read-out: IZ
[22] = system: Aspergillus terreus; test: Antimicrobial activity against Aspergillus terreus MTCC 1782 at 500 ug/ml after 72 hrs by cup plate method; details: MTCC 1782, 72 h, read-out: IZ
[23] = system: Pseudomonas aeruginosa; test: Antimicrobial activity against Pseudomonas aeruginosa MTCC 1688 at 500 ug/ml after 24 hrs by cup plate method; details: MTCC 1688, 24 h, read-out: IZ
[24] = system: Aspergillus terreus; test: Antimicrobial activity against Aspergillus terreus MTCC 1782 at 1000 ug/ml after 72 hrs by cup plate method; details: MTCC 1782, 72 h, read-out: IZ
[25] = system: Klebsiella pneumoniae; test: Antimicrobial activity against Klebsiella pneumoniae NCTC 13368 at 750 ug/ml after 24 hrs by cup plate method; details: NCTC 13368, 24 h, read-out: IZ

SMILES | zone of inhibition at 1000 µg/mL [1] | zone of inhibition at 750 µg/mL [2] | zone of inhibition at 1000 µg/mL [3] | zone of inhibition at 750 µg/mL [4] | zone of inhibition at 750 µg/mL [5] | zone of inhibition at 500 µg/mL [6] | zone of inhibition at 750 µg/mL [7] | zone of inhibition at 750 µg/mL [8] | zone of inhibition at 500 µg/mL [9] | zone of inhibition at 500 µg/mL [10] | zone of inhibition at 750 µg/mL [11] | zone of inhibition at 1000 µg/mL [12] | zone of inhibition at 750 µg/mL [13] | zone of inhibition at 1000 µg/mL [14] | zone of inhibition at 1000 µg/mL [15] | zone of inhibition at 1000 µg/mL [16] | Activity [17] | zone of inhibition at 500 µg/mL [18] | zone of inhibition at 1000 µg/mL [19] | zone of inhibition at 500 µg/mL [20] | other results
Cc1ccc(C2=CC(c3c(-c4ccccc4)[nH]c4ccccc34)c3c(N)nc(=S)[nH]c3O2)cc1 (stereo not given) | 3 mm | 4 mm | 3 mm | 4 mm | 3 mm | 10 mm | 9 mm | 5 mm | 3 mm | 9 mm | 8 mm | 9 mm | 5 mm | 2 mm | 4 mm | 3 mm | Active | 6 mm | 3 mm | 9 mm | zone of inhibition at 500 µg/mL [21]: 6 mm; zone of inhibition at 500 µg/mL [22]: 6 mm; zone of inhibition at 500 µg/mL [23]: 5 mm; zone of inhibition at 1000 µg/mL [24]: 4 mm; zone of inhibition at 750 µg/mL [25]: 9 mm
O=c1[nH]cnc2c1C(c1c(-c3ccccc3)[nH]c3ccc(Cl)cc13)C=C(c1ccccc1)O2 (stereo not given) | 13 mm | 10 mm | 3 mm | 12 mm | 12 mm | 12 mm | 13 mm | 7 mm | 12 mm | 10 mm | 10 mm | 13 mm | 3 mm | 7 mm | 12 mm | 9 mm | Active | 12 mm | 11 mm | 9 mm | zone of inhibition at 500 µg/mL [21]: 7 mm; zone of inhibition at 500 µg/mL [22]: 10 mm; zone of inhibition at 500 µg/mL [23]: 3 mm; zone of inhibition at 1000 µg/mL [24]: 9 mm; zone of inhibition at 750 µg/mL [25]: 9 mm
Cc1ccc(C2=CC(c3c(-c4ccccc4)[nH]c4ccccc34)c3c(nc[nH]c3=O)O2)cc1 (stereo not given) | 5 mm | 8 mm | 3 mm | 2 mm | 3 mm | 3 mm | 3 mm | 8 mm | 3 mm | 3 mm | 3 mm | 3 mm | 3 mm | 11 mm | 2 mm | 6 mm | Active | 2 mm | 3 mm | 6 mm | zone of inhibition at 500 µg/mL [21]: 8 mm; zone of inhibition at 500 µg/mL [22]: 8 mm; zone of inhibition at 500 µg/mL [23]: 4 mm; zone of inhibition at 1000 µg/mL [24]: 8 mm; zone of inhibition at 750 µg/mL [25]: 6 mm
Cc1ccc(C2=CC(c3c(-c4ccccc4)[nH]c4ccc(Cl)cc34)c3c(N)nc(=O)[nH]c3O2)cc1 (stereo not given) | 13 mm | 8 mm | 8 mm | 0 mm | 12 mm | 12 mm | 13 mm | 10 mm | 12 mm | 8 mm | 8 mm | 13 mm | 9 mm | 10 mm | 0 mm | 8 mm | Active | 0 mm | 10 mm | 8 mm | zone of inhibition at 500 µg/mL [21]: 10 mm; zone of inhibition at 500 µg/mL [22]: 8 mm; zone of inhibition at 500 µg/mL [23]: 10 mm; zone of inhibition at 1000 µg/mL [24]: 8 mm; zone of inhibition at 750 µg/mL [25]: 8 mm
Cc1ccc2[nH]c(-c3ccccc3)c(C3C=C(c4ccc(Cl)cc4)OC(N)=C3C#N)c2c1 (stereo not given) | 8 mm | 13 mm | 2 mm | 5 mm | 10 mm | 10 mm | 10 mm | 10 mm | 10 mm | 10 mm | 10 mm | 10 mm | 5 mm | 10 mm | 2 mm | 8 mm | Active | 6 mm | 10 mm | 9 mm | zone of inhibition at 500 µg/mL [21]: 10 mm; zone of inhibition at 500 µg/mL [22]: 12 mm; zone of inhibition at 500 µg/mL [23]: 6 mm; zone of inhibition at 1000 µg/mL [24]: 13 mm; zone of inhibition at 750 µg/mL [25]: 9 mm
Cc1ccc2[nH]c(-c3ccccc3)c(C3C=C(c4ccccc4)Oc4[nH]c(=O)nc(N)c43)c2c1 (stereo not given) | 7 mm | 8 mm | 10 mm | 11 mm | 8 mm | 9 mm | 8 mm | 9 mm | 8 mm | 8 mm | 8 mm | 5 mm | 10 mm | 10 mm | 11 mm | 5 mm | Active | 11 mm | 8 mm | 6 mm | zone of inhibition at 500 µg/mL [21]: 10 mm; zone of inhibition at 500 µg/mL [22]: 8 mm; zone of inhibition at 500 µg/mL [23]: 10 mm; zone of inhibition at 1000 µg/mL [24]: 9 mm; zone of inhibition at 750 µg/mL [25]: 5 mm
Cc1ccc(C2=CC(c3c(-c4ccccc4)[nH]c4ccc(C)cc34)C(C#N)=C(N)O2)cc1 (stereo not given) | 0 mm | 9 mm | 8 mm | 14 mm | 0 mm | 12 mm | 13 mm | 0 mm | 0 mm | 8 mm | 4 mm | 13 mm | 10 mm | 0 mm | 14 mm | 9 mm | Active | 14 mm | 3 mm | 9 mm | zone of inhibition at 500 µg/mL [21]: 0 mm; zone of inhibition at 500 µg/mL [22]: 0 mm; zone of inhibition at 500 µg/mL [23]: 10 mm; zone of inhibition at 1000 µg/mL [24]: 9 mm; zone of inhibition at 750 µg/mL [25]: 9 mm
